Measured values published in ChEMBL document CHEMBL5331068, “Briarane-type diterpenoids, the inhibitors of osteoclast formation by interrupting Keap1-Nrf2 interaction and activating Nrf2 pathway” (Eur J Med Chem, 2023).
Active and inactive are the calls of the source. The calls are words filed in the database; no cut-off is given here.

Tests used:
[1] = tested on: BMDM; assay: Anti-osteoclastogenesis activity in RANKL-induced C57BL/6 mouse BMDM cells assessed as downregulation of NFATc1 mRNA expression at 5 to 10 uM by qRT-PCR analysis; type: functional, cell-based; settings: dose 5-10 µM
[2] = tested on: RAW264.7; assay: Anti-osteoclastogenesis activity in RANKL-induced mouse RAW264.7 cells transfected with Nrf2 siRNA assessed as increase in NQO-1 expression level incubated for 3 days by Western blot analysis; type: functional, cell-based; settings: time 3.0 day
[3] = tested on: RAW264.7; assay: Anti-osteoclastogenesis activity in RANKL-induced mouse RAW264.7 cells transfected with Nrf2 siRNA assessed as increase in HO-1 expression level incubated for 3 days by Western blot analysis; type: functional, cell-based; settings: time 3.0 day
[4] = molecular target: Keap1/Nrf2 (Homo sapiens) (UniProt Q16236+Q14145); assay: Disruption of 16mer biotinylated Nrf2 (unknown origin)-Keap1 kelch domain (unknown origin) protein-protein interaction upto 100 uM by Biolayer Interferometry assay
Sequence of Keap1/Nrf2 (Homo sapiens) (Q14145 whole entry, looked up, the tested form may be a part): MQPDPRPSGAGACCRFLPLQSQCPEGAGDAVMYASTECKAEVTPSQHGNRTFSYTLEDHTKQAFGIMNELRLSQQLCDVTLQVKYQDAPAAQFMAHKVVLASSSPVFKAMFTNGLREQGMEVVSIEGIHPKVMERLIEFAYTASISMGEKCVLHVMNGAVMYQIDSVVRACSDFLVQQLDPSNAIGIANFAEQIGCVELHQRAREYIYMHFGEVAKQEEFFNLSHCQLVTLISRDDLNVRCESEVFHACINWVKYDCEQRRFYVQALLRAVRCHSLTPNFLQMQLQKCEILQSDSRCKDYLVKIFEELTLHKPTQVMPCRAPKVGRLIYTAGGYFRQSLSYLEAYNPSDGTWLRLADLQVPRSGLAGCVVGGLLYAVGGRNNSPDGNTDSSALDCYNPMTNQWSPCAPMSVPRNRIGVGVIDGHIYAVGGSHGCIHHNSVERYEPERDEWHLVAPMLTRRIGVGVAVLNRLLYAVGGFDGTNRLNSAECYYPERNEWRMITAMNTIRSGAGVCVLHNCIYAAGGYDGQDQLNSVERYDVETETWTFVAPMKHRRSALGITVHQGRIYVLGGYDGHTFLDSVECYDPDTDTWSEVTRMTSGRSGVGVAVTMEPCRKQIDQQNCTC
Sequence of Keap1/Nrf2 (Homo sapiens) (Q16236 whole entry, looked up, the tested form may be a part): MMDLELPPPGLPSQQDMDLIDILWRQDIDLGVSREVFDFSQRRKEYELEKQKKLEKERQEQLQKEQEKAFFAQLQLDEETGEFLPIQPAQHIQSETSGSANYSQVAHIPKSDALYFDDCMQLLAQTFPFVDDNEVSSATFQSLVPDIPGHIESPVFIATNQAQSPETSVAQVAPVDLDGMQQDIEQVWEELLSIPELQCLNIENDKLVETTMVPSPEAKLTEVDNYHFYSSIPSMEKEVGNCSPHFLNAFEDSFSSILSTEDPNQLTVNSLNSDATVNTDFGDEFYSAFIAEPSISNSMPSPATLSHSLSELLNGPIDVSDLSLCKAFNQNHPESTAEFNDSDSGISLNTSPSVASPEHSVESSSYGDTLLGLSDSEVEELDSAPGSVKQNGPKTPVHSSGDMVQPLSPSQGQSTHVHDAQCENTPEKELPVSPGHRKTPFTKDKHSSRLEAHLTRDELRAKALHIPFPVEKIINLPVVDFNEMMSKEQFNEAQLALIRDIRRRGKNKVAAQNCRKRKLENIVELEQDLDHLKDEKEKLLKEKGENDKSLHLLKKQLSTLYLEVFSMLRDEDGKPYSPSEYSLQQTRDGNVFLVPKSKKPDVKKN

[5] = tested on: BMDM; assay: Anti-osteoclastogenesis activity in RANKL-induced C57BL/6 mouse BMDM cells assessed as increase in HO-1 expression at 5 to 10 uM in the presence of M-CSF by Western blot analysis; type: functional, cell-based; settings: dose 5-10 µM
[6] = tested on: BMDM; assay: Anti-osteoclastogenesis activity in RANKL-induced C57BL/6 mouse BMDM cells assessed as suppression of early stage osteoclast differentiation at 10 uM incubated from day 1 to day 3 in the presence of M-CSF by TRAP-staining based microscopic analysis; type: functional, cell-based; settings: time 2.0 day
[7] = tested on: BMDM; assay: Inhibition of osteoclast migration in RANKL-induced C57BL/6 mouse BMDM cells at 10 uM incubated for 48 hrs in the presence of M-CSF by TRAP staining based wound healing assay; type: functional, cell-based
[8] = molecular target: Transcription factor p65 (Mus musculus) (UniProt Q04207); assay: Inhibition of RANKL-induced p65 NF-kappaB phosphorylation in C57BL/6 mouse BMDM cells transfected with Nrf2 siRNA at 10 uM incubated for 60 mins by Western blot analysis; type: cell-based
Sequence of Transcription factor p65 (Mus musculus) (Q04207 whole entry): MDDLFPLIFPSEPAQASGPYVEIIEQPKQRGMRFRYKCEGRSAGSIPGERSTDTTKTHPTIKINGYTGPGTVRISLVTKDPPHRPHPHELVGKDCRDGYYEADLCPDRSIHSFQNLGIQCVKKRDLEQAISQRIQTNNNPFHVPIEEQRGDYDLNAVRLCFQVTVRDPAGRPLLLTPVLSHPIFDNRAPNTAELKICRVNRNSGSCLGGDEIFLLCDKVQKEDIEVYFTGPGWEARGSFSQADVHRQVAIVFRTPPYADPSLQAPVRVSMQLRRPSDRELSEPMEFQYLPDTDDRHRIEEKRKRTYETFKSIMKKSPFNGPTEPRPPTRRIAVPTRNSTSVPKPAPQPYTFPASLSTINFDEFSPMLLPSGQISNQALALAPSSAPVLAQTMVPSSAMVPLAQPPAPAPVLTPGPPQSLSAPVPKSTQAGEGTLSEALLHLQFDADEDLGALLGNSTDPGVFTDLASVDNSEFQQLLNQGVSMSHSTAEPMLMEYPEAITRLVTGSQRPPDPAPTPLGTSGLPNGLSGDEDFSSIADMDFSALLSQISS

[9] = tested on: BMDM; assay: Anti-osteoclastogenesis activity in RANKL-induced C57BL/6 mouse BMDM cells assessed as suppression of late stage osteoclast differentiation at 10 uM incubated from day 3 to day 5 in the presence of M-CSF by TRAP-staining based microscopic analysis; type: functional, cell-based; settings: time 2.0 day
[10] = tested on: RAW264.7; assay: Anti-osteoclastogenesis activity in RANKL-induced mouse RAW264.7 cells transfected with Nrf2 siRNA assessed as increase in NFATc1 expression level incubated for 3 days by Western blot analysis; type: functional, cell-based; settings: time 3.0 day
[11] = molecular target: MAP kinase p38 (Mus musculus) (UniProt P47811+O08911+Q9WUI1+Q9Z1B7); assay: Inhibition of RANKL-induced p38 MAPK phosphorylation in C57BL/6 mouse BMDM cells incubated for 60 mins by Western blot analysis; type: cell-based
[12] = tested on: BMDM; assay: Anti-osteoclastogenesis activity in RANKL-induced C57BL/6 mouse BMDM cells assessed as downregulation of MMP-9 mRNA expression at 5 to 10 uM by qRT-PCR analysis; type: functional, cell-based; settings: dose 5-10 µM
[13] = molecular target: Kelch-like ECH-associated protein 1 (Homo sapiens, UniProt Q14145); assay: Binding affinity to recombinant human Keap1 assessed as equilibrium dissociation constant by SPR analysis
Sequence of Kelch-like ECH-associated protein 1 (Q14145 whole entry): as the sequence (Q14145 whole entry, looked up, the tested form may be a part) above

[14] = Inhibition of RANKL-induced ERK phosphorylation in C57BL/6 mouse BMDM cells transfected with Nrf2 siRNA at 10 uM incubated for 60 mins by Western blot analysis; type: cell-based
[15] = tested on: BMDM; assay: Anti-osteoclastogenesis activity in RANKL-induced C57BL/6 mouse BMDM cells assessed as increase in nuclear Nrf2 level at 5 to 10 uM in the presence of M-CSF by Western blot analysis; type: functional, cell-based; settings: dose 5-10 µM
[16] = tested on: BMDM; assay: Anti-osteoclastogenesis activity in RANKL-induced C57BL/6 mouse BMDM cells assessed as decrease in number of F-actin ring formation at 1 to 10 uM incubated for 7 days in the presence of M-CSF by DAPI staining based fluorescence microscopic analysis; type: functional, cell-based; settings: dose 1-10 µM, time 7.0 day
[17] = tested on: BMDM; assay: Anti-osteoclastogenesis activity in RANKL-induced C57BL/6 mouse BMDM cells assessed as decrease in bone resorption pit number incubated for 10 days in the presence of M-CSF by inverted microscopic analysis; type: functional, cell-based; settings: dose 1-10 µM, time 10.0 day
[18] = molecular target: T1, NF-kappa-B inhibitor alpha (Mus musculus) (UniProt Q9Z1E3); assay: Inhibition of RANKL-induced IkappaBalpha phosphorylation in C57BL/6 mouse BMDM cells transfected with Nrf2 siRNA at 10 uM incubated for 60 mins by Western blot analysis; type: cell-based
T1 sequence (whole entry): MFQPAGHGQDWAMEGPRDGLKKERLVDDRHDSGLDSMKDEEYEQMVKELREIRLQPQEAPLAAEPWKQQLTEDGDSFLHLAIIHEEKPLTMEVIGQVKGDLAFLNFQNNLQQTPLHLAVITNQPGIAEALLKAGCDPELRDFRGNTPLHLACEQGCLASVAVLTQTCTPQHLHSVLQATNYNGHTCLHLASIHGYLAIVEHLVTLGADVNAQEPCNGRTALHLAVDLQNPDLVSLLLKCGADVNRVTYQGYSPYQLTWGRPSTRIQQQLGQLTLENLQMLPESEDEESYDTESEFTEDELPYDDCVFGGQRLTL

[19] = tested on: RAW264.7; assay: Anti-osteoclastogenesis activity in RANKL-induced mouse RAW264.7 cells transfected with Nrf2 siRNA assessed as increase in c-fos expression level incubated for 3 days by Western blot analysis; type: functional, cell-based; settings: time 3.0 day
[20] = tested on: BMDM; assay: Anti-osteoclastogenesis activity in RANKL-induced C57BL/6 mouse BMDM cells assessed as elimination of TRAP-positive multinucleated osteoclast incubated for 7 days in the presence of M-CSF by TRAP-staining based microscopic analysis; type: functional, cell-based; settings: dose 1-10 µM, time 7.0 day
[21] = tested on: BMDM; assay: Anti-osteoclastogenesis activity in RANKL-induced C57BL/6 mouse BMDM cells assessed as inhibition of bone resorption by measuring downregulation of Cathepsin K expression at 5 to 10 uM in the presence of M-CSF by Western blot analysis; type: functional, cell-based; settings: dose 5-10 µM
[22] = molecular target: Kelch-like ECH-associated protein 1/Nuclear factor erythroid 2-related factor 2 (Mus musculus) (UniProt Q60795+Q9Z2X8); assay: Disruption of Nrf2 -Keap1 protein-protein interaction in RANKL-induced C57BL/6 mouse BMDM cells incubated for 24 hrs by Western blot based co-immunoprecipitation analysis; type: cell-based
Sequence of Kelch-like ECH-associated protein 1/Nuclear factor erythroid 2-related factor 2 (Mus musculus) (Q60795 whole entry, looked up): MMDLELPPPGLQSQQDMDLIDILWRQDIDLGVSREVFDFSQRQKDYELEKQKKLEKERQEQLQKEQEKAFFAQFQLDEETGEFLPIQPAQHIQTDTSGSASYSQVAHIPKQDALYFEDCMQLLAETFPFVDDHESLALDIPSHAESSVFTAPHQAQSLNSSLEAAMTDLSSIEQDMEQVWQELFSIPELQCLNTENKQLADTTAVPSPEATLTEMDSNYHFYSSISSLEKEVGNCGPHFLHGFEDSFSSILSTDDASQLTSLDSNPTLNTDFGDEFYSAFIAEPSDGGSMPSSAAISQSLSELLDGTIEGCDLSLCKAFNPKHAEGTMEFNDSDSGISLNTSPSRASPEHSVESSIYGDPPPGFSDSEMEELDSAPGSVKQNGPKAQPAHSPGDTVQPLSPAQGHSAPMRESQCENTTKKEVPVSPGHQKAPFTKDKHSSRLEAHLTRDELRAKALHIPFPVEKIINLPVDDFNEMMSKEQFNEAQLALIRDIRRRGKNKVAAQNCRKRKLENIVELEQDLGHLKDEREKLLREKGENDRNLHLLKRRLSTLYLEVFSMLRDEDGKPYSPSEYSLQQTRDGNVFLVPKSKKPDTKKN
Sequence of Kelch-like ECH-associated protein 1/Nuclear factor erythroid 2-related factor 2 (Mus musculus) (Q9Z2X8 whole entry, looked up): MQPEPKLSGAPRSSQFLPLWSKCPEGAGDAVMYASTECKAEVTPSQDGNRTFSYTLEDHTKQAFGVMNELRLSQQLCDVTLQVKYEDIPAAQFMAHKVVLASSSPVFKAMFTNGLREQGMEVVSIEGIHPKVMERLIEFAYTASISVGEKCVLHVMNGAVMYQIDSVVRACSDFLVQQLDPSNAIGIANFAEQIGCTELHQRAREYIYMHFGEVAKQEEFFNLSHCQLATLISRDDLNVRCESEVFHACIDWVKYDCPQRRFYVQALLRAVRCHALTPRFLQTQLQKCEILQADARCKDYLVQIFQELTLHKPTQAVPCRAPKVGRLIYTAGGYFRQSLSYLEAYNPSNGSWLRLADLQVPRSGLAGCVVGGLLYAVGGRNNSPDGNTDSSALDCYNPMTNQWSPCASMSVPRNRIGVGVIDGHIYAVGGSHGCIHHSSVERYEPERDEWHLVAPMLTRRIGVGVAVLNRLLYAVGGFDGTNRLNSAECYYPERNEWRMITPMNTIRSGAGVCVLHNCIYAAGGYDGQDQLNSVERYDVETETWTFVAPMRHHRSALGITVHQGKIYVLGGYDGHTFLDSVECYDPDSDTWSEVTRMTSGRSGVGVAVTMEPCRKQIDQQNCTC

[23] = molecular target: Transcription factor p65 (Mus musculus) (UniProt Q04207); assay: Inhibition of RANKL-induced p65 NF-kappaB phosphorylation in C57BL/6 mouse BMDM cells incubated for 60 mins by Western blot analysis; type: cell-based
[24] = tested on: BMDM; assay: Anti-osteoclastogenesis activity in C57BL/6 mouse BMDM cells transfected with Nrf2 siRNA assessed as inhibition of RANKL-induced osteoclastogenesis at 10 uM incubated for 5 days in the presence of M-CSF by TRAP-staining based microscopic analysis; type: functional, cell-based; settings: time 5.0 day
[25] = tested on: BMDM; assay: Anti-osteoclastogenesis activity in RANKL-induced C57BL/6 mouse BMDM cells assessed as increase in NQO-1 expression at 5 to 10 uM in the presence of M-CSF by Western blot analysis; type: functional, cell-based; settings: dose 5-10 µM
[26] = Cytotoxicity against C57BL/6 mouse BMDM cells incubated for 48 hrs by MTT assay; type: toxicity, cell-based; settings: BMDM cells (bone marrow-derived macrophages)

- Activity [4]: Active
- inhibition [8]: inactive
- inhibition [11]: Active
- Kd [13]: 6.4 µM
- inhibition [18]: inactive
- Activity [22]: Active
- inhibition [23]: Active
Structure (SMILES): C=C1[C@H]2O[C@]3([C@@H](C)C(=O)O[C@H]3[C@H]1Cl)[C@@H](OC(C)=O)[C@H]1[C@]3(CC[C@H](OC(C)=O)[C@]1(C)[C@@H](OC(C)=O)[C@@H]2OC(C)=O)CO3
- Activity [1]: Active
- Activity [2]: inactive
- Activity [3]: inactive
- Activity [5]: Active
- Activity [6]: Active
- inhibition [7]: Active
- Activity [9]: Active
- Activity [10]: inactive
- Activity [12]: Active
- inhibition [14]: inactive
- Activity [15]: Active
- Activity [16]: Active
- Activity [17]: Dose-Dependent Effect
- Activity [19]: inactive
- Activity [20]: Dose-Dependent Effect
- Activity [21]: Active
- Activity [24]: inactive
- Activity [25]: Active
- CC50 at 48 h [26]: > 50 µM
